These results are taken from patent publication US8252912B2, “Transcriptional repression of sodium-iodide symporter in thyroid carcinoma” (University of Kentucky Research Foundation, priority 2007, dated 2012).

One data set has as its system hNIS mRNA in KAK-1 cells. Kind of data set: qRT-PCR assay of hNIS mRNA levels after treatments in KAK-1 cells. The data set is classed as cell-based, human. As to conditions: for Stimulation of hNIS mRNA transcription (in words): qRT-PCR; for Relative hNIS mRNA level: relative to control = 1 (4 copies/10^9 18s RNA), azaC 0.5 μM, NaB 1 mM, CHX 10 μg/ml, 3-AB 7.5 mM, PJ34 30 μmole/liter. The method, then:
The basal media and supplements were all from GIBCO/Invitrogen Corporation, Grand Island, N.Y. All thyroid cell lines were grown in phenol red-free RPMI 1640 (GIBCO) with 10% FBS, 100 nmol/L sodium selenite, and 0.1 nmol/L bovine TSH (Sigma) at 37° C. in 5% CO2. KAK-1 cells were also cultured in high-glucose, phenol red-free RPMI 1640 supplemented with 10% FBS, 100 nM sodium selenite, 5 pIU/ml human TSH, 0.1 mM non-essential amino acids, 1 mM sodium pyruvate at 37° C. in 5% CO2. Cell culture media was replenished every 2 days. All chemical reagents were obtained from Sigma Chemical Company (St. Louis, Mo.). In addition, PJ34 was obtained from CalBiochem/EMD Biosciences, Inc. (La Jolla, Calif.) and used at 30 μmole/liter. Cycloheximide (CHX), 3-aminobenzamide (3-AB), 5-azacytidine (azaC), and sodium butyrate (NaB) were from Sigma-Aldrich Chemical Company (St. Louis, Mo.) and used at 10 μg/ml, 7.5 mM, 0.5 μM, 1 mM respectively.
Total RNA was isolated using TRIzol reagent (Invitrogen Corp., Carlsbad, Calif.), genomic DNA contamination removed using DNA-free kit (Ambion Inc., Austin, Tex.), and cDNA synthesized from 2 μg total RNA using Advantage RT-for-PCR kit (BD Biosciences Clontech, Palo Alto, Calif.) with random hexamer primers. TaqMan Universal PCR Master Mix (Applied Biosystems, Foster City, Calif.) and Assay-on-Demand Gene Expression Products (Hs00166567_m1 for hNIS mRNA and Hs999999-1_s1 for 18sRNA, respectively; Applied Biosystems) were used for RNA quantitation. The hNIS fragment (1446-1865, +1 is translation initiation codon “A”) was PCR amplified using NIS-F (5′-ctgcgtggctctctcagtc-3′ SEQ ID NO:6) and NIS-R (5′-ccctccagctccttctgc-3′ SEQ ID NO:7), followed by ligation into pCR2.1 vector (Invitrogen). The same procedure was followed using 18s-F (5′-atggtgaccacgggtgacg-3′ SEQ ID NO:8) and 18s-R (5′-[…]-3′ SEQ ID NO:9) for 18s qPCR standard. DNA preparations of these two plasmids were quantitated, diluted and used as quantitation standards in qPCR measurements.
The qRT-PCR assay was used to measure hNIS mRNA levels after different treatments in KAK-1 cells.
Background: Quantitative PCR measures a nucleic acid by following its amplification.

The subject of data set [1] is hNIS promoter in KAK-1 cells. Put plainly: Luciferase reporter assay with pGL3-basic, F4-pGL3-basic and F4Δ-pGL3-basic constructs in KAK-1 cells, PJ34 treatment. Conditions: PJ34 at 30 μM for 2 days, pGL3-basic, F4-pGL3-basic, F4Δ-pGL3-basic, p<0.05, t-test. The class given is cell-based, human. The method, then:
For the transient transfection assays to monitor the effects of PJ34, PJ34 was administered at 30 μM one hour before DNA transfection mixtures were added to the KAK-1 cultures. Twenty-four hours later, transfection mixtures were replaced with fresh media containing PJ34. Luciferase and Rennilar activities were determined 24 hr later. Luciferase activity was normalized to Rennilar activity to account for the variations in transfection efficiency. Triplicate transfections were performed and data were presented as mean±SD.
PJ34 is a potent inhibitor for PARP-1. Its effect on hNIS transcription was determined using luciferase reporter assay with pGL3-basic, F4-pGL3-basic (containing hNIS promoter from −1252 to −348 bp) and F4Δ-pGL3-basic constructs (the same as F4-pGL3-basic but with deletion of sequence from −667 to −588 bp, encompassing R—NRBS).
A general note: In a reporter assay the amount or activity of a reporter protein is the signal.

Data set [2] relates to human NIS promoter region (Luc-1/pGL3-basic) in KAK-1 cells. Put plainly: Transient transfection luciferase reporter assay, Luc-1/pGL3-basic (hNIS promoter -1667 to -348 bp) in KAK-1 cells, protein synthesis inhibitors. The data set is classed as cell-based. Conditions: 2 days, Anisomycin at 0.4, 1 μg/ml, Emetine at 1, 2 μg/ml, Puromycin up to highest concentration used (1 μg/ml). The method, then:
The pGL3-basic plasmid, together with phRG-B plasmid (as transfection efficiency control) and pUC-18 (as carrier) were transiently transfected into KAK-1 cells cultured under basal conditions supplemented with 0.01% DMSO (as solvent control), Anisomycin (0.1, 0.4, 1 μg/ml), Emetine (0.5, 1, 2 μg/ml) and Puromycin (0.1, 0.4, 1 μg/ml) respectively for 2 days. The cells were then lysed and firefly luciferase activity and Renilla luciferase activity were quantitated using a luminometer (FIG. 3).
Luc-1/pGL3-basic reporter construct (Luc-1) was prepared containing the promoter region of the human sodium/iodide symporter gene (see Venkataraman et al. 1998 Thyroid 8:63-69 and U.S. Pat. No. 6,015,376; Genebank Accession Number: AF059566) from −1667 to −348 bp (FIG. 2) inserted into pGL3-basic luciferase vector at KpnI and HindIII site upstream of the luciferase coding sequence. The Luc-1/pGL3-basic construct, together with phRG-B plasmid (as transfection efficiency control) and pUC-18 (as carrier) were transiently transfected into KAK-1 cells cultured under basal conditions supplemented with 0.01% DMSO (as solvent control), Anisomycin (0.1, 0.4, 1 μg/ml), Emetine (0.5, 1, 2 μg/ml) and Puromycin (0.1, 0.4, 1 μg/ml) respectively for 2 days. The cells were then lysed and firefly luciferase activity and Renilla luciferase activity were quantitated using luminometer (FIG. 4).

Data set [3] has as its system factors in KAK-1 nuclear extract binding to NRBS (Probe A). Kind of data set: EMSA with radiolabeled Probe A and nuclear extract from treated KAK-1 cells. The class given is cell-based, human. Conditions: nuclear extract from KAK-1 cells treated with azaC 0.5 μM, sodium butyrate 1 mM, CHX 10 μg/ml or combinations. (Mobility shift assays separate free from complexed probe on a gel.)
Protocol: Electrophoretic mobility shift assay was performed using radio-labeled NRBS (−684 to −565) oligonucleotides as a probe and nuclear extracts from KAK-1 cells cultured under basal conditions (not expressing hNIS mRNA), as well as with azaC/NaB and azaC/CHX treatments (shown in FIG. 8 on far left).

Data set [4] has as its system factor(s) in KAK-1 nuclear extract binding to Probe A (NIS-repressor). Kind of data set: EMSA competition of cold double-stranded oligonucleotides against radiolabeled Probe A with KAK-1 nuclear extract. Also on record: species or system human. Conditions: excess (60×) cold competitor. On the procedure: Nuclear extracts were prepared using the NucBuster Protein Extraction kit from Novagen/EMD Biosciences, Inc. (La Jolla, Calif.) following its instructions. The radioactive EMSA probes were end-labeled using T4 polynucleotide kinase in the presence of γ-P^32-ATP (GE Healthcare Bio-Sciences Corp., Piscataway, N.J.), followed by removal of the free radioactive ATP with the QIAquick Nucleotide Removal Kit from Qiagen (Valencia, Calif.). EMSA reaction was performed using the EMSA Accessory Kit (Novagen) following its instructions. Briefly, 1 μL 10 mM DTT, 5 μL 4×EMSA buffer, 1 μL Salmon sperm DNA and 1 μL poly dI:dC were mixed with 3 μL nuclear extracts, 1 μL radioactive EMSA probe and water to make up to 18 μL. In some reactions, antibodies or cold competitive probes were added. The mixtures were incubated on ice for 30 min, Then 2 μL loading dye were added to each reaction tubes, and the samples were loaded onto 7.5% PAGE/0.5×TBE, and run overnight. The gel was dried, exposed to X-ray films that were developed 2-3 days later. The competitive EMSA probes were prepared by annealing the sense and anti-sense single strand synthetic oligos respectively, which are listed in Table 2.

For `CN(C)CC(=O)Nc1ccc2[nH]c(=O)c3ccccc3c2c1` [PJ34], in the data set with hNIS mRNA in KAK-1 cells, the “Stimulation of hNIS mRNA transcription (in words)” value is recorded as “stimulate hNIS mRNA more than CHX alone” and the “Relative hNIS mRNA level” value stood at 26. Moreover, the “Normalized luciferase activity with versus without PJ34 treatment” value in data set [1] is given as “stimulated luciferase activity from all the constructs”.

Turning to `CC[C@H]1CN2CCc3cc(OC)c(OC)cc3[C@@H]2C[C@@H]1C[C@H]1NCCc2cc(OC)c(OC)cc21` [Emetine], the “Normalized luciferase activity driven by human NIS promoter region (Luc-1/pGL3-basic), compared with pGL3-basic vector” value in data set [2] is given as “dramatically stimulated the normalized luciferase activity”.

Take `NC(=O)c1cccc(N)c1` [3-AB, 3-aminobenzamide]: in the data set on hNIS mRNA in KAK-1 cells, the “Stimulation of hNIS mRNA transcription (in words)” value was “not effective in stimulating hNIS mRNA transcription” and the “Relative hNIS mRNA level” value is 1.

For the molecule `COc1ccc(C[C@H]2NC[C@H](O)[C@H]2OC(C)=O)cc1` [Anisomycin], the “Normalized luciferase activity driven by human NIS promoter region (Luc-1/pGL3-basic), compared with pGL3-basic vector” value in data set [2] is “dramatically stimulated the normalized luciferase activity”.

As to `Nc1ncn([C@@H]2O[C@H](CO)[C@@H](O)[C@H]2O)c(=O)n1` [azaC, 5-azacytidine], the “Relative hNIS mRNA level” value in the data set with hNIS mRNA in KAK-1 cells turned out to be 5. The “Effect of cell treatment on EMSA gel shift pattern (Probe A)” value in data set [3] is “gel shift pattern remained the same”.

On to “Comp-1.3: double-stranded competitive EMSA probe, −643 to −620 of hNIS promoter, Seq ID No:81/82 (chain 1 AGCCTCAATTTCCCCACCTGTCAA; chain 2 TTGACAGGTGGGGAAATTGAGGCT; chemistry not given here)”, for which, in data set [4], the “Competition against radiolabeled Probe A in EMSA (gel-shift signal)” value (shortened to “Competition … (gel-shift signal)”) is reported as “effectively competed against the radiolabeled Probe A”.

Turning to “Comp-1.4: double-stranded competitive EMSA probe, −638 to −615 of hNIS promoter, Seq ID No:83/84 (chain 1 CAATTTCCCCACCTGTCAACAGCA; chain 2 TGCTGTTGACAGGTGGGGGAAATTG; chemistry not given here)”, in data set [4], the “Competition … (gel-shift signal)” value is recorded as “fail to compete against the radiolabeled Probe A”.

On to `COc1ccc(C[C@H](N)C(=O)N[C@H]2[C@@H](O)[C@H](n3cnc4c(N(C)C)ncnc43)O[C@@H]2CO)cc1` [Puromycin], for which the “Normalized luciferase activity driven by human NIS promoter region (Luc-1/pGL3-basic), compared with pGL3-basic vector” value in data set [2] was “did not stimulate the luciferase activity much”.

Turning to “Comp-1.1: double-stranded competitive EMSA probe, −653 to −630 of hNIS promoter, Seq ID No:77/78 (chain 1 GCCCTTTTTGAGCCTCAATTTCCC; chain 2 GGGAAATTGAGGCTCAAAAAGGGC; chemistry not given here)”, the “Competition … (gel-shift signal)” value in data set [4] is “fail to compete against the radiolabeled Probe A”.

“Comp-1.2: double-stranded competitive EMSA probe, −648 to −625 of hNIS promoter, Seq ID No:79/80 (chain 1 TTTTGAGCCTCAATTTCCCCACCT; chain 2 AGGTGGGGAAATTGAGGCTCAAAA; chemistry not given here)”: in data set [4], the “Competition … (gel-shift signal)” value is “effectively competed against the radiolabeled Probe A”.

For the molecule `C[C@@H]1C[C@@H]([C@H](O)CC2CC(=O)NC(=O)C2)C(=O)[C@@H](C)C1` [CHX, Cycloheximide], in the data set on hNIS mRNA in KAK-1 cells, the “Relative hNIS mRNA level” value was found to be 4.

B1: Comp-2: double-stranded competitive EMSA probe, −633 to −595 of hNIS promoter, Seq ID No:85/86 (nucleic acid)
chain 1: TCCCCACCTGTCAACAGCAGACAGTGACAGCTGTGATCA
chain 2: TGATCACAGCTGTCACTGTCTGCTGTTGACAGGTGGGGA
modifications: chemistry not given here
As to B1, the “Competition … (gel-shift signal)” value in data set [4] was “fail to compete against the radiolabeled Probe A”.

B2: Comp-1: double-stranded competitive EMSA probe, −653 to −615 of hNIS promoter, Seq ID No:75/76 (nucleic acid)
chain 1: GCCCTTTTTGAGCCTCAATTTCCCCACCTGTCAACAGCA
chain 2: TGCTGTTGACAGGTGGGGAAATTGAGGCTCAAAAAGGGC
modifications: chemistry not given here
With B2, the “Competition … (gel-shift signal)” value in data set [4] is reported as “completely erased the characteristic gel-shift signal”.

B3: Comp-0.9: double-stranded competitive EMSA probe, −660 to −627 of hNIS promoter, Seq ID No:73/74 (nucleic acid)
chain 1: GTGACATGCCCTTTTTGAGCCTCAATTTCCCCAC
chain 2: GTGGGGAAATTGAGGCTCAAAAAGGGCATGTCAC
modifications: chemistry not given here
For B3, the “Competition … (gel-shift signal)” value in data set [4] is “fail to compete against the radiolabeled Probe A”.
